The test system of one experiment is ERK5 signalling. On the set-up: method as in Gavine et al., 2015. Particulars: HEK293 cell line stably co-expressing MEK5CA and ERK5; ref Gavine et al., 2015; cited from earlier work.
In a further experiment the target is T1, recombinant human ERK5 (Homo sapiens, UniProt Q13164).
T1 construct: Catalytically active kinase domain of recombinant human ERK5 enzyme was purchased from Carna Biosciences; purchased Carna Biosciences
Put plainly: TR-FRET (LANCE Ultra) biochemical assay of ERK5 kinase activity. As for the experimental part:
Catalytically active kinase domain of recombinant human ERK5 enzyme was purchased from Carna Biosciences. […] The inhibitory potency of compounds against ERK5 was evaluated using the LANCE Ultra technology from PerkinElmer according to the manufacturer’s instructions. Briefly, 3 µl of different concentrations of ATP and 100 nM ULight-eIF4E-binding protein 1 (Thr37/46) peptide (Perkin-Elmer catalogue No. TRF0128) were incubated in the presence of serially diluted compound or DMSO control at room temperature in 384-well Greiner white polystyrene assay plates. The reaction was initiated by the addition of 3 µl of 10 nM kinase. The assay buffer consisted of 1 mM DTT, 10 mM MgCl2, 1 mM EGTA, 0.01%(v/v) Tween 20 in 50 mM HEPES pH 7.5. After 60 min incubation, the reaction was stopped by the addition of 6 µl stop/detection reagent mixture consisting of 20 mM EDTA and 4 nM Eu-anti-phospho-eIF4E-binding protein 1 (Thr37/46) antibody (PerkinElmer catalogue No. TRF0216) diluted in detection buffer. The plates were incubated for 1 h before the fluorescence was measured at 615 and 665 nm with an excitation wavelength of 320 nm using an EnVision Multilabel Reader from Perkin-Elmer in time-resolved fluorescence resonance energy transfer (TR-FRET) mode. The calculated signal ratio at 665/615 nm is proportional to the kinase activity. The concentration of compound producing 50% inhibition of the kinase activity (IC50) was calculated by using GraphPad Prism to fit the data to a symmetrical sigmoidal curve.
On the technique in general: In TR-FRET formats the signal depends on donor and acceptor labels being close together.

In experiment [1] the test system is 225 kinases in the ThermoFisher standard kinase panel. Put plainly: Kinase-panel activity screen, whole panel. The settings on record: 10 µM compound; for Kinase selectivity profile in words: panel of 225 kinases. In kind it is biochemical. As for the experimental part: Compounds 2, 3 and 5 were tested for activity against the 225 kinases in the ThermoFisher standard kinase panel. The standard Z′-LYTE assay protocol (ThermoFisher) was used to measure the percentage inhibition at 10 µM compound concentration (details are provided in the supporting information).

Where [2] appears, read: TR-FRET enzymatic assay, phosphorylated ERK5, read-out: ERK5 IC50.

Where two headings read alike, the source gives them in different places.

The IC50 is the concentration at which inhibition is half-maximal.

T1 sequence (Q13164 55-347 limits assumed): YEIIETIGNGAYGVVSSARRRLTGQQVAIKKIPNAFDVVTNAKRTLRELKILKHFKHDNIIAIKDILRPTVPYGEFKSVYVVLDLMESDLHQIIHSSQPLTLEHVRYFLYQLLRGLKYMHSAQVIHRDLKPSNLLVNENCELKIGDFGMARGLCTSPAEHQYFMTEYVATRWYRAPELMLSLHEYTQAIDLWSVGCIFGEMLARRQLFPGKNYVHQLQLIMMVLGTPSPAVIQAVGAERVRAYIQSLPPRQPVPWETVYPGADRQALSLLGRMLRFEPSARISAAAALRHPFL

For the molecule “XMD8-92 [Compound 2, reference compound]”, in the experiment with ERK5 signalling, the “Block of downstream ERK5 signalling” value is listed as “able to block downstream ERK5 signalling”.

Turning to `Cc1cc(Nc2nc(N)nn2C(=O)NC(C)C)ccc1Cl` [Compound 5], on recombinant human ERK5 (ATP-competition study, IC50 curves at different ATP concentrations), the “Mode of ERK5 inhibition with respect to ATP” value is given as “ATP-competitive”. The half-maximal inhibitory concentration (IC50) at recombinant human ERK5 (ERK5 IC50 at [ATP] 20 µM, [ATP] 20 µM) was 2.3 µM; at recombinant human ERK5 (ERK5 IC50 at [ATP] 40 µM, [ATP] 40 µM), 2.9 µM; at recombinant human ERK5 (ERK5 IC50 at [ATP] 60 µM, [ATP] 60 µM), 3.1 µM; on recombinant human ERK5 (ERK5 IC50 at [ATP] 200 µM, [ATP] 200 µM), 4.1 µM; on recombinant human ERK5 (ERK5 IC50 at [ATP] 1000 µM, [ATP] 1000 µM) it was 9.9 µM; at recombinant human ERK5 (ERK5 IC50 at [ATP] 2000 µM, [ATP] 2000 µM), 14.8 µM. The IC50 was determined as 2.3 µM at recombinant human ERK5 (setting [2]); 3.4 µM on recombinant human ERK5 ([ATP] 80 µM, read-out: ERK5 IC50 at [ATP] 80 µM); 6.3 µM on recombinant human ERK5 ([ATP] 500 µM, read-out: ERK5 IC50 at [ATP] 500 µM). Further, the “Number of kinases with significant activity (greater than 80% inhibition) out of the 225 tested” value in experiment [1] is “five”. The “Kinase selectivity profile in words” value in experiment [1] is listed as “most selective”.

As to `Cc1ncc(-c2nc(Nc3ccc(C(=O)NCCN4CCCCC4)cc3)ncc2F)n1C(C)C` [Compound 3], the IC50 at recombinant human ERK5 (setting [2]) stood at 0.042 µM. In addition, the “Kinase selectivity profile in words” value in experiment [1] is on record as “most promiscuous”.
